{
  "source": "patent US20210177889A1",
  "about": "“GASEOUS PHARMACEUTICAL COMPOSITION FOR HYPERTENSION THERAPY” (KEIO UNIVERSITY, priority 2019, published 2021)",
  "key": {"[1]": {"tested_on": "hypertension attributed to 5/6 nephrectomy", "assay": "Prophylactic effect of one hour daily H2 inhalation after 5/6 nephrectomy, invasive arterial blood pressure at 4 weeks", "assay_type": "in vivo, Lewis rat", "settings": "four weeks after 5/6 nephrectomy; 1.3% H2 inhaled one hour daily from immediately after nephrectomy; N=3; mean±SE; P=0.02 vs control gas (134.1±3.3)", "experimental": "Invasive blood pressure measurement was performed 4 weeks after gas inhalation. An arterial catheter (PE50, Natsume) was inserted under isoflurane inhalation into the left femoral artery, and arterial blood pressure was measured (DX-360, Nihon Kohden). In order to elicit renal hypertension, 5/6 nephrectomy was carried out with slight modification to previously described methods (Nephrology (Carlton) 19, 552-561; 10.1111/nep.12279 (2014); J. Am. Soc. Nephrol. 4, 2023-2031 (1994); and Kidney Int. 40, 29-34; 10.1038/ki.1991.175 (1991).). Briefly, rats were anesthetized by isoflurane inhalation (induction at 4% and maintenance at 1.5%), and upper midline laparotomy of about 4 cm was carried out. Surgical operation was performed under a microscope, the left renal artery branch was identified, and selectively ligated with 7-0 silk at a position as close as possible to the left kidney so that macroscopic infarction is caused in about ⅔ of the left renal cortex. In the first pilot research (FIGS. 1a and 2), a high-temperature cautery pen (AA11, Bovie, Tenn., U.S.A.) was used to add the resection of the infarcted portion of the kidney. Subsequently, the right renal artery, the renal vein, and the urinary duct was ligated with 4-0 silk, and the right kidney were resected. The abdominal wall and the skin were closed with a 4-0 nylon thread. […]"}, "autonomic nerve function": {"tested_on": "autonomic nerve function", "assay": "Autonomic nerve function by frequency analysis in spontaneous hypertension rats", "assay_type": "in vivo, rat (SHR/Izumo)", "settings": "SHR", "experimental": "(§1) Heart rate variability was analyzed using telemetry system software (Ponemah Ver. 6.3, Data Science International). Frequency domain analysis (sampling rate of 500 Hz; very low frequency (VLF) (0.05-0.25 Hz); low frequency (LF) (0.25-1.0 Hz); and high frequency (HF) (1.0-3.0 Hz)) was carried out using the arterial pressure waveform data of the first one minute of every five minutes (about 300 to 400 beats). In heart rate variability analysis, data recorded in the first 15 minutes was excluded, and effective data in the first one minute out of a block of every 5 minutes was used. LF and HF each reflected the sympathetic nerve component and the parasympathetic nerve component (Akselrod, S. et al. Power spectrum analysis of heart rate fluctuation: a quantitative probe of beat-to-beat cardiovascular control. Science 213, 220-222 (1981); Pagani, M. et al. Power spectral analysis of heart rate and arterial pressure variabilities as a marker of sympatho-vagal interaction in man and conscious dog. Circ. Res. 59, 178-193 (1986); and Montano, N. et al. Power spectrum analysis of heart rate variability to assess the changes in sympathovagal balance during graded orthostatic tilt. Circulation 90, 1826-1831 (1994)). LF/HF ratio and HF/(LF+HF) were each handled as indicators of sympathetic nerve activity and parasympathetic nerve activity (Heart rate variability: standards of measurement, physiological interpretation and clinical use. Task Force of the European Society of Cardiology and the North American Society of Pacing and Electrophysiology. Circulation 93, 1043-1065 (1996); and Pagani, M. et al. Relationship between spectral components of cardiovascular variabilities and direct measures of muscle sympathetic nerve activity in humans. Circulation 95, 1441-1448 (1997)).\n(§2) H2 gas (1.3% H2+21% O2+77.7 N2) and control gas (21% O2+79% N2) were filled into gas cylinders in advance at a factory. The H2 group and the control group were allowed to inhale the H2 gas and the control gas that were mixed in advance. […]"}, "[2]": {"tested_on": "autonomic nervous system activity", "assay": "Spectral analysis of blood pressure variability (autonomic nervous system) in 5/6 nephrectomized rats", "assay_type": "in vivo, Lewis rat", "experimental": "as §1, §2"}, "[3]": {"settings": "baseline (day 0) to 4 weeks after starting H2 inhalation, vs control 5/6 nephrectomy group"}},
  "data": [
    {"smiles": "[2H][2H]", "note": "[H2 gas, Molecular hydrogen (H2)]", "values": [
      {"measurement": "mean arterial pressure (MAP)", "setting": "[1]", "result": "94.2±10.3", "unit": "mmHg"},
      {"measurement": "paraSNA (HF/LF+HF) ratio", "setting": "autonomic nerve function; Week two compared to Week 1", "result": "increases"},
      {"measurement": "influence on the autonomic nerve function after the end of inhalation", "setting": "autonomic nerve function; after the first week after the end of inhalation", "result": "disappeared"},
      {"measurement": "SNA (LF/HF)", "setting": "autonomic nerve function; during inhalation of H2", "result": "decreases"},
      {"measurement": "decrease in HF power (normalised units), change from baseline", "setting": "[2]; [3]", "result": "significantly suppressed"},
      {"measurement": "increase in LF power (normalised units), change from baseline", "setting": "[2]; [3]", "result": "significantly suppressed"},
      {"measurement": "increase in LF power and decrease in HF power, compared as continuous variables", "setting": "[2]; over a 4-week time course, tendency to be suppressed", "result": "not significant"}
    ]}
  ]
}
